Data as given in paper PMC4634704 (Bioorganic & medicinal chemistry letters, 2015).
Like-named read-outs stand apart in the source and are kept apart here.

What was measured:
[1] = rat, cited from earlier work
[2] = Hepatic microsomal intrinsic clearance, rat; conditions: predicted hepatic clearance
[3] = Hepatic microsomal intrinsic clearance, human; conditions: predicted hepatic clearance
[4] = target: mGlu5 (Homo sapiens, UniProt P41594); assay: Allosteric agonism in cell lines over expressing mGlu5; format: cell-based
[5] = target: mGlu5 (Rattus norvegicus, UniProt P31424); assay: Allosteric agonism in rat astrocytes; format: cell-based; conditions: mGlu5 endogenously expressed
[6] = Stability in vehicle formulation; format: physicochemical; conditions: 20% β-CD pH 6, 4 mg/mL, up to five days
[7] = tested on: mGlu1-4,6-8; assay: mGlu family selectivity; format: cell-based; conditions: selectivity versus other mGlu family members
[8] = tested on: 68 distinct GPCRs, ion channels and transporters; assay: Broad panel ancillary screen; format: binding; conditions: 68 targets, Eurofins Inc.
[9] = Discrete rat PK
[10] = Discrete dog PK
[11] = tested on: major CYP450 enzymes; assay: CYP450 inhibition
[12] = Rat IV cassette PK; conditions: male, Sprague-Dawley, in vivo, 0.2 mg/kg
[13] = Rat plasma stability; conditions: 4 h incubation; 37 °C
[14] = Simulated gastric fluid solubility and stability; conditions: 1 h, 37 °C
[15] = Terminal brain and plasma levels from AHL studies
[16] = Rat modified Irwin study / acute CNS behavioural observation
[17] = 30 days, 360 mg/kg/day, IND-enabling

Sequence of mGlu5 (Rattus norvegicus, UniProt P31424) (P31424 21-1203): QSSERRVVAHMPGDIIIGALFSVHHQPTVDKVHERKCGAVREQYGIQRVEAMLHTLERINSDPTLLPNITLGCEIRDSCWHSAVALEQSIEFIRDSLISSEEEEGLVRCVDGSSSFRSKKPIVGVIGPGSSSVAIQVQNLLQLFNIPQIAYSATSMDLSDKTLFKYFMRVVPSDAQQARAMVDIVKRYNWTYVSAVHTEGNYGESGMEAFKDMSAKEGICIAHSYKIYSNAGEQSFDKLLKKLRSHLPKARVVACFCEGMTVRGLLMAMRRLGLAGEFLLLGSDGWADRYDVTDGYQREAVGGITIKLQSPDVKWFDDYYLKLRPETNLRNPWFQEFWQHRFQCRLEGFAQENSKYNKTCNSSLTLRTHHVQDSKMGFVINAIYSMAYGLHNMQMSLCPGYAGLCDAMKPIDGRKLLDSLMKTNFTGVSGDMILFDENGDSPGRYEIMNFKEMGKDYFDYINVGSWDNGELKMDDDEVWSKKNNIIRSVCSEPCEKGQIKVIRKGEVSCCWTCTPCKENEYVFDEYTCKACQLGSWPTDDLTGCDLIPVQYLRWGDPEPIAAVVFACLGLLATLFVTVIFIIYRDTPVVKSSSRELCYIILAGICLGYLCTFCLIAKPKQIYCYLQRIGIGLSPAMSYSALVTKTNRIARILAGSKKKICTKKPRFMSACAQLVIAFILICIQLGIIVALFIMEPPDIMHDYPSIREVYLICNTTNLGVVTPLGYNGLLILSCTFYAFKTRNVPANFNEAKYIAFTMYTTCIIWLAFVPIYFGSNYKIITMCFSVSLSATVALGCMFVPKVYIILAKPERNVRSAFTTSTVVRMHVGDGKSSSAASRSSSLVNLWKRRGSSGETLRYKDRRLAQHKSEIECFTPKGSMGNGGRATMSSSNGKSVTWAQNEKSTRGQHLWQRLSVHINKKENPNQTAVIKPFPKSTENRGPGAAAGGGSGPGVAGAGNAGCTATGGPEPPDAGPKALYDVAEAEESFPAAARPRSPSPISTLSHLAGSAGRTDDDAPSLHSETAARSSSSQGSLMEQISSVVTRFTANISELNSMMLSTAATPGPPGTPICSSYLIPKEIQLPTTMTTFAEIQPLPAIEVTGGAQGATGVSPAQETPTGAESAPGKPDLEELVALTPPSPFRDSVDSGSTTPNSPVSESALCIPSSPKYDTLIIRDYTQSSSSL
Sequence of mGlu5 (Homo sapiens, UniProt P41594) (P41594 21-1212): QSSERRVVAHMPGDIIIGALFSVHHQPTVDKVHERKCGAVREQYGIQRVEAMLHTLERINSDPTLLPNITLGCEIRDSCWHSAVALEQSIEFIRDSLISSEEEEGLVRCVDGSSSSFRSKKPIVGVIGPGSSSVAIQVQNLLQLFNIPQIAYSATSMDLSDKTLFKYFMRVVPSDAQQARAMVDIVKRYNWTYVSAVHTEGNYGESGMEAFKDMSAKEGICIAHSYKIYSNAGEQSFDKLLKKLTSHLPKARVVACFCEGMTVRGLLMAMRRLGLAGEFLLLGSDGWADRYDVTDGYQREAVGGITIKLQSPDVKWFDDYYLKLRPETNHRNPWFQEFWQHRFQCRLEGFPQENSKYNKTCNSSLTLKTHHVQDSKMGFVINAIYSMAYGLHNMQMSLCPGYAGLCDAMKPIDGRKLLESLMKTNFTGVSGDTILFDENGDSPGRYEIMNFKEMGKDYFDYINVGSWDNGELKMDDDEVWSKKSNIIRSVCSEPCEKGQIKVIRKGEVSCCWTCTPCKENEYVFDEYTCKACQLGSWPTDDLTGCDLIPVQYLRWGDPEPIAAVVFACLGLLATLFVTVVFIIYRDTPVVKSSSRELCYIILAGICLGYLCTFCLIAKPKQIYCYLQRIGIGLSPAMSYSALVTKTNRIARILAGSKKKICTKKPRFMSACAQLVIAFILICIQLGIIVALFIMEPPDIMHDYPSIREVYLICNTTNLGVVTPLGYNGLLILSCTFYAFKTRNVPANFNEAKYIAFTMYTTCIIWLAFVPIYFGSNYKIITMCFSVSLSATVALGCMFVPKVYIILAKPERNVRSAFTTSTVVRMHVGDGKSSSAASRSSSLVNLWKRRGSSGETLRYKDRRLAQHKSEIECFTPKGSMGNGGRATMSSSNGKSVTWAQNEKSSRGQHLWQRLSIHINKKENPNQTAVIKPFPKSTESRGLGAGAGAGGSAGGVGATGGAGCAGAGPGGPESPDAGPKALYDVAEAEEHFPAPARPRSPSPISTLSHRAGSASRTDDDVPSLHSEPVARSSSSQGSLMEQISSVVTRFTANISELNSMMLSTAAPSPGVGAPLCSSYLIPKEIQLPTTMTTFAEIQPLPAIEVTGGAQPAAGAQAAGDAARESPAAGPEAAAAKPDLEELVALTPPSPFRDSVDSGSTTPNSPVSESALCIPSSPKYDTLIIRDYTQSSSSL

O=C(c1ccc(F)cc1)N1CCc2nc(COc3ccccc3)oc2C1 [compound 1]
neurotoxicity ([1]; 14 day oral dose-limiting study, 450 mg/kg/day): no neurotoxicity was observed | exposure ([1]; 14 day, 450 mg/kg/day): 273-440 μM-h | Fluoro-Jade C staining [1, 17]: induced Fluoro-Jade C staining in a small number of rats | exposure [1, 17]: 253-416 μM-h

CC(=O)N1CCCn2nc(COc3cccc(F)c3)cc21 [12b]
CLhep (r) [2]: > 35 mL/min/kg | CLhep (h) [3]: > 12 mL/min/kg

CC(=O)N1CCCn2nc(COc3ccccc3)cc21 [9a, 1-(2-(phenoxymethyl)-6,7-dihydropyrazolo[1,5-a]pyrimidin-4(5H)-yl)ethanone]
allosteric agonism [4]: no allosteric agonism was detected | allosteric agonism [5]: no allosteric agonism was detected | decomposition in vehicle formulation [6]: < 5% | FS at mGlu1-4,6-8 [7]: < 1.2 | activity in broad panel ancillary screen [8]: no noted activity | clearance [9]: moderate to high | bioavailability [10]: low bioavailability | clearance [10]: moderate to high | exposure ([10]; IV and oral): poor exposure | IC50 [11]: > 30 µM | clearance [12]: > 70 mL/min/kg | rat plasma stability [13]: stable | CLhep (r) [2]: > 35 mL/min/kg | CLhep (h) [3]: > 12 mL/min/kg | decomposition in simulated gastric fluid [14]: < 5% | terminal estimated unbound brain concentration ([15]; AHL 3 mg/kg PO, rat): 199 nM | brain concentration ([16]; 56.6 mg/kg, rat): 113 µM | safety window ([16]; modified Irwin concentrations versus AHL MED): ≥ 100 fold | behaviour across 30 autonomic and somatomotor endpoints ([16]; modified Irwin, 30 mg/kg PO, rat): no observable alterations in behavior | concentration at 1 h ([16]; rat, in vivo, 30 mg/kg, est. Cb,u, 30 mg/kg PO, 1.0 h post-dose): 36 µM

CC(=O)N1CCCn2nc(COc3ccccc3F)cc21 [12a]
clearance [12]: > 70 mL/min/kg | rat plasma stability [13]: stable | terminal brain concentration ([15]; AHL 10 mg/kg PO, T90, rat): not detected
